In patent US8404691B2, “Imidazothiazole derivatives having proline ring structure” (Daiichi Sankyo Company, Limited, priority 2009, dated 2013):
pIC50: −log10 of the molar value.

How the values were obtained:
[1] = system: human lung cancer-derived cell line NCI-H460 having wild-type p53; assay: Cell growth inhibition assay (MTT); format: cell-based; conditions: 72 h, NCI-H460 cells, culturing 3 days, read-out: anti-cellular effect GI50 (50% growth inhibition concentration)
Protocol: A cell growth inhibition assay was conducted using human lung cancer-derived cell line NCI-H460 having wild-type p53.
NCI-H460 cells were suspended in a medium (RPMI1640 medium containing 10% fetal bovine serum) and the suspension was inoculated in an amount of 500 cells/150 μL/well to a 96-well multiwell plate. A test compound was dissolved in DMSO and this solution was diluted with medium to prepare a sample solution (DMSO concentration: 1% or lower). On the next day of inoculation, medium nonsupplemented with the test compound or the sample solution was added in an amount of 50 μL/well. The MTT assay was conducted immediately after the medium was added in an amount of 50 μL on the next day of cell inoculation, and after the sample solution or the medium was added to cells followed by culturing at 37° C. for 3 days in a 5% CO2 atmosphere. The MTT assay was conducted as shown below.
A 5 mg/mL MTT (3-(4,5-dimethylthiazol-2-yl)-2,5-diphenyltetrazolium bromide, Sigma-Aldrich Co., M-2128) solution was prepared using a phosphate buffer solution (Dulbecco's Phosphate-buffered Saline). This MTT solution was added in an amount of 20 μL/well. Then, the plate was cultured at 37° C. for 4 hours in a 5% CO2 atmosphere. The plate was centrifuged at 1200 rpm for 5 minutes and then the culture supernatant was removed by aspiration using a dispenser. DMSO was added in an amount of 150 μL/well to dissolve generated formazan. The plate was stirred using a plate mixer for uniform color development from each well. The absorbance of each well was measured under conditions of OD 540 nm and reference 660 nm using a plate reader (SpectraMax PLUS384, Molecular Devices, CA, USA).
The OD value measured on the day of adding the sample solution was defined as S. The OD value measured three days after addition of the sample solution was defined as T. The OD value measured three days after addition of the DMSO dilution was defined as C. T/C (%) was determined at each concentration according to the calculation formula shown below to prepare a dose response curve, from which 50% growth inhibition concentration (GI50 value) was calculated. T/C(%)=(T−S)/(C−S)×100

[2] = Metabolic stability test (microsomal metabolism); format: in vitro ADME; conditions: human liver microsomes, 37° C., 30 minutes after addition of NADP+; further: tested at 1.1 µM
Protocol: 100 μL of 100 mM phosphate buffer solution (pH 7.4) containing 3 μM test compound was added to 100 μL of reaction solution containing 100 mM phosphate buffer solution (pH 7.4), 30 mM glucose 6-phosphate, 10 mM MgCl2.6H2O, 3 units/mL glucose 6-phosphate 1-dehydrogenase, and 0.3 to 1.5 mgP/mL human liver microsomes and the mixture was incubated at 37° C. for 20 minutes. Then, 70 μL of 100 mM phosphate buffer solution (pH 7.4) containing 3 mM NADP+ was added and the mixture was further incubated at 37° C. for 30 minutes to conduct a microsomal metabolism test. The compound was quantified by the internal standard method using a quadrupole mass spectrometer connected to a high performance liquid chromatography apparatus. The metabolic stability (residual percentage of compound: MS %) was determined according to the following formula: MS(human)(%)=(peak area ratio of test compound after addition of NADP+ and incubation for 30 minutes)/(peak area ratio of test compound before addition of NADP+)×100.
(peak area ratio: peak area of test compound divided by that of internal standard substance)

[3] = biological target: T1, Mdm2/p53 binding (Homo sapiens, UniProt Q00987, L33E); assay: Mdm2/p53 binding assay (HTRF, His-p53 and GST-Mdm2); conditions: His-p53 (aa 1-132) and GST-Mdm2 (aa 25-108, L33E), 6.25 nM each, 25° C. for 1 hour
T1 construct: Mdm2 amino acids at positions 25 to 108
Protocol: Next, a test compound was diluted with DMSO to produce protein buffer solution containing 10% dilution, and this buffer solution was added in an amount of 4 μL/well to the plate.
These dilutions were added in an amount of 8 μL/well (total reaction solution volume: 20 μl/well). Then, the plate was left at 25° C. for 1 hour.
The R value calculated from the well supplemented with His-p53, GST-Mdm2, the test compound, and each antibody was defined as R (sample). The R value calculated from the well supplemented with His-p53, GST-Mdm2, and each antibody but without the test compound was defined as R (control). The R value calculated from the well supplemented with GST-Mdm2, the test compound, and each antibody but without His-p53 was defined as R (background). T/C was calculated from the formula shown below. An IC50 value for Mdm2/p53 binding was calculated by sigmoid fitting. T/C=(R(sample)−R(background))/(R(control)−R(background))

T1 sequence (Q00987 25-108 L33E): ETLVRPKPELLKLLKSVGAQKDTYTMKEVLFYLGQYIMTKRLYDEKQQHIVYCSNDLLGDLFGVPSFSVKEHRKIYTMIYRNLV

| Structure (SMILES) | GI50 [1] [nM] | MS (human) % (metabolic stability, residual percentage of compound) [2] [%] | pIC50 [3] |
| --- | --- | --- | --- |
| CC(C)C1=C(C(=O)N2C[C@H](F)C[C@H]2C(=O)N2CCNC3(CC3)C2)SC2=N[C@@](C)(c3ccc(Cl)nc3)[C@@H](c3ccc(Cl)c(F)c3)N21 [Example 1, 7-[(4R)-1-{[(5R,6S)-5-(4-chloro-3-fluorophenyl)-6-(6-chloropyridin-3-yl)-3-isopropyl-6-methyl-5,6-dihydroimidazo[2,1-b][1,3]thiazol-2-yl]carbonyl}-4-fluoro-L-prolyl]-4,7-diazaspiro[2.5]octane] | < 400 | 77 | 8.55 |
| CC(C)C1=C(C(=O)N2C[C@H](F)C[C@H]2C(=O)N2CC3(CC3)NC[C@@H]2C)SC2=N[C@@](C)(c3ccc(Cl)nc3)[C@@H](c3ccc(Cl)c(F)c3)N21 [Example 2, (6S)-7-[(4R)-1-{[(5R,6S)-5-(4-chloro-3-fluorophenyl)-6-(6-chloropyridin-3-yl)-3-isopropyl-6-methyl-5,6-dihydroimidazo[2,1-b][1,3]thiazol-2-yl]carbonyl}-4-fluoro-L-prolyl]-6-methyl-4,7-diazaspiro[2.5]octane] | – | 100 | – |
| CC(C)C1=C(C(=O)N2C[C@H](F)C[C@H]2C(=O)N2CC3(CC3)NC[C@H]2C)SC2=N[C@@](C)(c3ccc(Cl)nc3)[C@@H](c3ccc(Cl)c(F)c3)N21 [Example 3, (6R)-7-[(4R)-1-{[(5R,6S)-5-(4-chloro-3-fluorophenyl)-6-(6-chloropyridin-3-yl)-3-isopropyl-6-methyl-5,6-dihydroimidazo[2,1-b][1,3]thiazol-2-yl]carbonyl}-4-fluoro-L-prolyl]-6-methyl-4,7-diazaspiro[2.5]octane] | – | 68 | – |
| CC[C@H]1CNC2(CC2)CN1C(=O)[C@@H]1C[C@@H](F)CN1C(=O)C1=C(C(C)C)N2C(=N[C@@](C)(c3ccc(Cl)nc3)[C@H]2c2ccc(Cl)c(F)c2)S1 [Example 4, (6S)-7-[(4R)-1-{[(5R,6S)-5-(4-chloro-3-fluorophenyl)-6-(6-chloropyridin-3-yl)-3-isopropyl-6-methyl-5,6-dihydroimidazo[2,1-b][1,3]thiazol-2-yl]carbonyl}-4-fluoro-L-prolyl]-6-ethyl-4,7-diazaspiro[2.5]octane] | – | 100 | – |
| CC[C@@H]1CN(C(=O)C(F)(F)F)C2(CC2)CN1C(=O)[C@@H]1C[C@@H](F)CN1C(=O)C1=C(C(C)C)N2C(=N[C@@](C)(c3ccc(Cl)nc3)[C@H]2c2ccc(Cl)c(F)c2)S1 [Example 5, (6R)-7-[(4R)-1-{[(5R,6S)-5-(4-chloro-3-fluorophenyl)-6-(6-chloropyridin-3-yl)-3-isopropyl-6-methyl-5,6-dihydroimidazo[2,1-b][1,3]thiazol-2-yl]carbonyl}-4-fluoro-L-prolyl]-6-ethyl-4-(trifluoroacetyl)-4,7-diazaspiro[2.5]octane] | < 400 | – | 8.28 |
| CC[C@@H]1CNC2(CC2)CN1C(=O)[C@@H]1C[C@@H](F)CN1C(=O)C1=C(C(C)C)N2C(=N[C@@](C)(c3ccc(Cl)nc3)[C@H]2c2ccc(Cl)c(F)c2)S1 [Example 6, (6R)-7-[(4R)-1-{[(5R,6S)-5-(4-chloro-3-fluorophenyl)-6-(6-chloropyridin-3-yl)-3-isopropyl-6-methyl-5,6-dihydroimidazo[2,1-b][1,3]thiazol-2-yl]carbonyl}-4-fluoro-L-prolyl]-6-ethyl-4,7-diazaspiro[2.5]octane] | – | 69 | – |
| CC(C)C[C@@H]1CNC2(CC2)CN1C(=O)[C@@H]1C[C@@H](F)CN1C(=O)C1=C(C(C)C)N2C(=N[C@@](C)(c3ccc(Cl)nc3)[C@H]2c2ccc(Cl)c(F)c2)S1 [Example 7, (6R)-7-[(4R)-1-{[(5R,6S)-5-(4-chloro-3-fluorophenyl)-6-(6-chloropyridin-3-yl)-3-isopropyl-6-methyl-5,6-dihydroimidazo[2,1-b][1,3]thiazol-2-yl]carbonyl}-4-fluoro-L-prolyl]-6-isobutyl-4,7-diazaspiro[2.5]octane] | 400 to 2500 | 100 | 8.44 |
| CC(C)C1=C(C(=O)N2C[C@H](F)C[C@H]2C(=O)N2CC3(CC3)NCC23CC3)SC2=N[C@@](C)(c3ccc(Cl)nc3)[C@@H](c3ccc(Cl)c(F)c3)N21 [Example 8, 4-[(4R)-1-{[(5R,6S)-5-(4-chloro-3-fluorophenyl)-6-(6-chloropyridin-3-yl)-3-isopropyl-6-methyl-5,6-dihydroimidazo[2,1-b][1,3]thiazol-2-yl]carbonyl}-4-fluoro-L-prolyl]-4,9-diazaspiro[2.2.2.2]decane] | < 400 | 95 | 8.66 |
| CC(C)C1=C(C(=O)N2CC(F)(F)C[C@H]2C(=O)N2CC3(CC3)NC[C@@H]2C)SC2=N[C@@](C)(c3ccc(Cl)nc3)[C@@H](c3ccc(Cl)c(F)c3)N21 [Example 9, (6S)-7-(1-{[(5R,6S)-5-(4-chloro-3-fluorophenyl)-6-(6-chloropyridin-3-yl)-3-isopropyl-6-methyl-5,6-dihydroimidazo[2,1-b][1,3]thiazol-2-yl]carbonyl}-4,4-difluoro-L-prolyl)-6-methyl-4,7-diazaspiro[2.5]octane] | < 400 | 80 | 8.39 |
| CC(C)C1=C(C(=O)N2CC(F)(F)C[C@H]2C(=O)N2CC3(CC3)NC[C@H]2C)SC2=N[C@@](C)(c3ccc(Cl)nc3)[C@@H](c3ccc(Cl)c(F)c3)N21 [Example 10, (6R)-7-(1-{[(5R,6S)-5-(4-chloro-3-fluorophenyl)-6-(6-chloropyridin-3-yl)-3-isopropyl-6-methyl-5,6-dihydroimidazo[2,1-b][1,3]thiazol-2-yl]carbonyl}-4,4-difluoro-L-prolyl)-6-methyl-4,7-diazaspiro[2.5]octane] | < 400 | 48 | 7.85 |
| CC(C)C1=C(C(=O)N2C[C@H](F)C[C@H]2C(=O)N2CC3(CC3)NC[C@@H]2CO)SC2=N[C@@](C)(c3ccc(Cl)nc3)[C@@H](c3ccc(Cl)c(F)c3)N21 [Example 11, {(6R)-7-[(4R)-1-{[(5R,6S)-5-(4-chloro-3-fluorophenyl)-6-(6-chloropyridin-3-yl)-3-isopropyl-6-methyl-5,6-dihydroimidazo[2,1-b][1,3]thiazol-2-yl]carbonyl}-4-fluoro-L-prolyl]-4,7-diazaspiro[2.5]oct-6-yl}methanol] | 400 to 2500 | 100 | 8.49 |
| CC(C)C1=C(C(=O)N2C[C@H](F)C[C@H]2C(=O)N2CC3(CC3)NC[C@@H]2C)SC2=N[C@@](C)(c3ccc(Cl)cc3)[C@@H](c3ccc(Cl)c(F)c3)N21 [Example 24] | < 400 | 89 | – |
| CC(C)C1=C(C(=O)N2C[C@H](F)C[C@H]2C(=O)N2CC3(CC3)NC[C@H]2C)SC2=N[C@@](C)(c3ccc(Cl)cc3)[C@@H](c3ccc(Cl)c(F)c3)N21 [Example 25] | < 400 | 47 | – |
